Results reported in patent US20260285876A1, “MACROCYCLIC COMPOUNDS AS USP1 INHIBITORS” (GUANGDONG NEWOPP BIOPHARMACEUTICALS CO., LTD., priority 2023, published 2026).

What follows are compounds tested against T1, USP1/UAF1 (Homo sapiens, UniProt O94782) (assay: Deubiquitination assay for USP1/UAF1 (ubiquitin-rhodamine 110 substrate)). Details: 0.5 nM USP1/UAF1, 150 nM ubiquitin-rhodamine, 50% inhibition compared to DMSO control.
T1 construct: purchased R&D Systems
Format: biochemical
Protocol: Deubiquitination assay for USP1/UAF1: compounds described here were tested for their ability to inhibit USP1 deubiquitinase activity in this assay using ubiquitin-rhodamine 110 as the substrate. The assay was conducted in the assay buffer (50 mM Tris-HCl, pH 7.8, 0.5 mM EDTA, 0.1 mg/ml Bovine Serum Albumin, 1 mM DTT, 0.01% Tween-20) in 384 well plates. 0.5 nM USP1/UAF1 (R&D Systems) was incubated with compounds in dose response format for 10 minutes at room temperature. Then the reaction was initiated by addition of 150 nM ubiquitin-rhodamine (R&D Systems). The fluorescence intensity was read after 45 minutes at Ex488/Em535 by CLARIOstar (BMG Labtech). IC50 response curves were plotted.

T1 sequence (O94782 whole entry): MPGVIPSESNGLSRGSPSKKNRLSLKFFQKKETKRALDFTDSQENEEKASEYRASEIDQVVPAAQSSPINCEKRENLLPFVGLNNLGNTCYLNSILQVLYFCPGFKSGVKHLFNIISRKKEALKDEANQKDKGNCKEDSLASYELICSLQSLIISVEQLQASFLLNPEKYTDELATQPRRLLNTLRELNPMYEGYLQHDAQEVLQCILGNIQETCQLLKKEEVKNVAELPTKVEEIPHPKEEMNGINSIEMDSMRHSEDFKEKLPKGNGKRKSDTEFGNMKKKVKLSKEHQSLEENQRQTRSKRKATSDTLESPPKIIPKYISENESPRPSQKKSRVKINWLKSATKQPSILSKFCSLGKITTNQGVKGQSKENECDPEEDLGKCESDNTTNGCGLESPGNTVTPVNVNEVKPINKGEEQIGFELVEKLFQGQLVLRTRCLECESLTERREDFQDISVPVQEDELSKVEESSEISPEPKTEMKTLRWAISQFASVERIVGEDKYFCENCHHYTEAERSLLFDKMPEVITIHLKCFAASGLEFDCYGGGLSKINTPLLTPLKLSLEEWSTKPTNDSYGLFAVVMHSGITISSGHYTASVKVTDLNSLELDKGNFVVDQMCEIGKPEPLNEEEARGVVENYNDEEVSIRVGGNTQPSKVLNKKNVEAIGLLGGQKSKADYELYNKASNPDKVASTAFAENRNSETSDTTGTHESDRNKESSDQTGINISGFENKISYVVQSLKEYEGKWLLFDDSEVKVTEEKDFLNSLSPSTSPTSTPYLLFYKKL
T1 sequence (Q8TAF3 whole entry partner): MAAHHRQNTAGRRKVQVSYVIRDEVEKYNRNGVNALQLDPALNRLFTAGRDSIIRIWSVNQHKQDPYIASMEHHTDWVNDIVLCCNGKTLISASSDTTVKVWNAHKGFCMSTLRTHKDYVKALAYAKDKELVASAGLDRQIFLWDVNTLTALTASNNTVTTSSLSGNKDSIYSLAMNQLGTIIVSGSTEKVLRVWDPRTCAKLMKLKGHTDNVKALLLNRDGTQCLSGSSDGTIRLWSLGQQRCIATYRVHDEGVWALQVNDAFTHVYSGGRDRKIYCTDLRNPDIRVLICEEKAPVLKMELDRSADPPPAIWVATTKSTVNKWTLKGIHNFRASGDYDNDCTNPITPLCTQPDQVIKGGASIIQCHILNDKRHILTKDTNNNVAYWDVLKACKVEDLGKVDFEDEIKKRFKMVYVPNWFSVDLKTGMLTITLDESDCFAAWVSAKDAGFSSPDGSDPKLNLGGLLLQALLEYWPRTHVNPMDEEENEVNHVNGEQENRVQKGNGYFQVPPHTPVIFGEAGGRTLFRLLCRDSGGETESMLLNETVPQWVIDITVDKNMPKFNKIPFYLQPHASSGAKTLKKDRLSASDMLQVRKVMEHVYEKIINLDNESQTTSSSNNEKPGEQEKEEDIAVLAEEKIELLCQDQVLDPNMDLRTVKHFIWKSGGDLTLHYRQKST

CC(C)n1cc(C(F)(F)F)nc1-c1ccc2c(c1)OCCCNc1c(ncnc1C1CC1)-c1ncc3cnn(c3n1)C2 [Example 10, 1^6-cyclopropyl-4^4-(1-isopropyl-4-(trifluoromethyl)-1H-imidazol-2-yl)-2^1H-5-oxa-9-aza-2(6,1)-pyrazolo[3,4-d]pyrimidina-1(5,4)-pyrimidina-4(1,2)-benzenacyclononaphane] and CC(C)n1cc(C(F)(F)F)nc1-c1ccc2c(c1)OCCNc1ncnc(C3CC3)c1-c1ncc3cnn(c3n1)C2 [Example 11, 1^6-cyclopropyl-4^4-(1-isopropyl-4-(trifluoromethyl)-1H-imidazol-2-yl)-2^1H-5-oxa-8-aza-2(6,1)-pyrazolo[3,4-d]pyrimidina-1(5,4)-pyrimidina-4(1,2)-benzenacyclooctaphane] cannot be ordered by IC50: ≤ 100 nM for the first, ≤ 100 nM for the second.

CC(C)n1cc(C(F)(F)F)nc1-c1ccc2c(c1)OCC1(CC1)COc1ncnc(C3CC3)c1-c1ncc3cnn(c3n1)C2 [Example 12, 6′-cyclopropyl-4′-(1-isopropyl-4-(trifluoromethyl)-1H-imidazol-2-yl)spiro[cyclopropane-1,7′-5,9-dioxa-2(6,1)-pyrazolo[3,4-d]pyrimidina-1(5,4)-pyrimidina-4(1,2)-benzenacyclononaphane]] and CC(C)n1cc(C(F)(F)F)nc1-c1ccc2c(c1)COCCOc1ncnc(C3CC3)c1-c1ncc3cnn(c3n1)C2 [Example 28, 1^6cyclopropyl-4^4-(1-isopropyl-4-(trifluoromethyl)-1H-imidazol-2-yl)-2^1H-6,9-dioxa-2(6,1)-pyrazolo[3,4-d]pyrimidina-1(5,4)-pyrimidina-4(1,2)-benzenacyclononaphane] cannot be ordered by IC50: 100 to 1000 nM for the first, ≤ 100 nM for the second.

FC(F)(F)c1cn(C2CC2)c(-c2ccc3c(c2)OCCOc2ncnc(C4CC4)c2-c2ncc4cnn(c4n2)C3)n1 [Example 13, 1^6-cyclopropyl-4^4-(1-cyclopropyl-4-(trifluoromethyl)-1H-imidazol-2-yl)-2^1H-5,8-dioxa-2(6,1)-pyrazolo[3,4-d]pyrimidina-1(5,4)-pyrimidina-4(1,2)-benzenacyclooctaphane] and Fc1cc2n3nc(ncc13)-c1c(ncnc1C1CC1)OCCOc1cc(-c3nc(C(F)(F)F)cn3C3CC3)ccc1C2 [Example 34, (Z)-1^6-cyclopropyl-4^4-(1-cyclopropyl-4-(trifluoromethyl)-1H-imidazol-2-yl)-2^5-fluoro-5,8-dioxa-2(2,7)-pyrrolo[2,1-f][1,2,4]triazina-1(5,4)-pyrimidina-4(1,2)-benzenacyclooctaphane] cannot be ordered by IC50: ≤ 100 nM for the first, ≤ 100 nM for the second.

CC(C)n1cc(C(F)(F)F)nc1-c1ccc2c(c1)NCCOc1ncnc(C3CC3)c1-c1ncc3cnn(c3n1)C2 [Example 14, 1^6-cyclopropyl-4^4-(1-isopropyl-4-(trifluoromethyl)-1H-imidazol-2-yl)-2^1H-8-oxa-5-aza-2(6,1)-pyrazolo[3,4-d]pyrimidina-1(5,4)-pyrimidina-4(1,2)-benzenacyclooctaphane] and CC(C)n1cc(C(F)(F)F)nc1-c1ccc2c(c1)SCCOc1ncnc(C3CC3)c1-c1ncc3cnn(c3n1)C2 [Example 27, 1^6-cyclopropyl-4^4-(1-isopropyl-4-(trifluoromethyl)-1H-imidazol-2-yl)-2^1H-8-oxa-5-thia-2(6,1)-pyrazolo[3,4-d]pyrimidina-1(5,4)-pyrimidina-4(1,2)-benzenacyclooctaphane] cannot be ordered by IC50: ≤ 100 nM for the first, ≤ 100 nM for the second.

CC(C)n1cc(C(F)(F)F)nc1-c1ccc2c(c1)OCCOc1ncnc(C3CC3)c1-c1ncc3ccc(=O)n(c3n1)C2 [Example 16, 1^6-cyclopropyl-4^4-(1-isopropyl-4-(trifluoromethyl)-1H-imidazol-2-yl)-2^7,2^8-dihydro-5,8-dioxa-2(2,8)-pyrido[2,3-d]pyrimidina-1(5,4)-pyrimidina-4(1,2)-benzenacyclooctaphan-2^7-one] and CC(C)n1cc(C(F)(F)F)nc1-c1ccc2c(c1)OCCCOc1ncnc(C3CC3)c1-c1ncc3ccc(=O)n(c3n1)C2 [Example 17, 1^6-cyclopropyl-4^4-(1-isopropyl-4-(trifluoromethyl)-1H-imidazol-2-yl)-2^7,2^8-dihydro-5,9-dioxa-2(2,8)-pyrido[2,3-d]pyrimidina-1(5,4)-pyrimidina-4(1,2)-benzenacyclononaphan-2^7-one] cannot be ordered by IC50: ≤ 100 nM for the first, ≤ 100 nM for the second.

Compared with O=c1ccc2cnc3nc2n1Cc1ccc(-c2nc(C(F)(F)F)cn2C2CC2)cc1CCOc1c-3ncnc1C1CC1 [Example 18, 1^6-cyclopropyl-4^4-(1-cyclopropyl-4-(trifluoromethyl)-1H-imidazol-2-yl)-2^7,2^8-dihydro-7-oxa-2(2,8)-pyrido[2,3-d]pyrimidina-1(5,4)-pyrimidina-4(1,2)-benzenacycloheptaphan-2^7-one], CC(C)n1cc(C(F)(F)F)nc1-c1ccc2c(c1)CCCOc1ncnc(C3CC3)c1-c1ncc3ccc(=O)n(c3n1)C2 [Example 25, 1^6-cyclopropyl-4^4-(1-isopropyl-4-(trifluoromethyl)-1H-imidazol-2-yl)-2^7,2^8-dihydro-8-oxa-2(2,8)-pyrido[2,3-d]pyrimidina-1(5,4)-pyrimidina-4(1,2)-benzenacyclooctaphan-2^7-one] is lower in IC50: ≥ 1000 nM for the first, ≤ 100 nM for the second. The second is the more potent here.

CC(C)n1cc(C(F)(F)F)nc1-c1ccc2c(c1)OCCCNc1ncnc(C3CC3)c1-c1ncc3ccc(=O)n(c3n1)C2 [Example 19, 1^6-cyclopropyl-4^4-(1-isopropyl-4-(trifluoromethyl)-1H-imidazol-2-yl)-2^7,2^8-dihydro-5-oxa-9-aza-2(2,8)-pyrido[2,3-d]pyrimidina-1(5,4)-pyrimidina-4(1,2)-benzenacyclononaphan-2^7-one] and CC(C)n1cc(C(F)(F)F)nc1-c1ccc2c(c1)NCCCOc1ncnc(C3CC3)c1-c1ncc3ccc(=O)n(c3n1)C2 [Example 20, 1^6-cyclopropyl-4^4-(1-isopropyl-4-(trifluoromethyl)-1H-imidazol-2-yl)-2^7,2^8-dihydro-9-oxa-5-aza-2(2,8)-pyrido[2,3-d]pyrimidina-1(5,4)-pyrimidina-4(1,2)-benzenacyclononaphan-2^7-one] cannot be ordered by IC50: 100 to 1000 nM for the first, ≤ 100 nM for the second.

FC(F)(F)c1cn(C2CC2)c(-c2ccc3c(c2)OCCOc2ncnc(C4CC4)c2-c2ncc4ccc(n4n2)C3)n1 [Example 21, (Z)-1^6-cyclopropyl-4^4-(1-cyclopropyl-4-(trifluoromethyl)-1H-imidazol-2-yl)-5,8-dioxa-2(2,7)-pyrrolo[2,1-f][1,2,4]triazina-1(5,4)-pyrimidina-4(1,2)-benzenacyclooctaphane] and FC(F)(F)c1cn(C2CC2)c(-c2ccc3c(c2)CCCOc2ncnc(C4CC4)c2-c2ncc4ccc(n4n2)C3)n1 [Example 32, (Z)-1^6-cyclopropyl-4^4-(1-cyclopropyl-4-(trifluoromethyl)-1H-imidazol-2-yl)-8-oxa-2(2,7)-pyrrolo[2,1-f][1,2,4]triazina-1(5,4)-pyrimidina-4(1,2)-benzenacyclooctaphane] cannot be ordered by IC50: ≤ 100 nM for the first, ≤ 100 nM for the second.

First: CC(C)n1cc(C(F)(F)F)nc1-c1ccc2c(c1)N(C)CCCOc1ncnc(C3CC3)c1-c1ncc3cnn(c3n1)C2 [Example 23, 1^6-cyclopropyl-4^4-(1-isopropyl-4-(trifluoromethyl)-1H-imidazol-2-yl)-5-methyl-2^1H-9-oxa-5-aza-2(6,1)-pyrazolo[3,4-d]pyrimidina-1(5,4)-pyrimidina-4(1,2)-benzenacyclononaphane]
Second: CC(C)n1cc(C(F)(F)F)nc1-c1ccc2c(c1)/C=C/COc1ncnc(C3CC3)c1-c1ncc3cnn(c3n1)C2 [Example 30, (E)-1^6-cyclopropyl-4^4-(1-isopropyl-4-(trifluoromethyl)-1H-imidazol-2-yl)-2^1H-8-oxa-2(6,1)-pyrazolo[3,4-d]pyrimidina-1(5,4)-pyrimidina-4(1,2)-benzenacyclooctaphan-5-ene]
The IC50 of the first is higher: ≥ 1000 nM for the first, ≤ 100 nM for the second.

CC(C)n1cc(C(F)(F)F)nc1-c1ccc2c(c1)NCCOc1ncnc(C3CC3)c1-c1ncc3ccc(=O)n(c3n1)C2 [Example 24, 1^6-cyclopropyl-4^4-(1-isopropyl-4-(trifluoromethyl)-1H-imidazol-2-yl)-2^7,2^8-dihydro-8-oxa-5-aza-2(2,8)-pyrido[2,3-d]pyrimidina-1(5,4)-pyrimidina-4(1,2)-benzenacyclooctaphan-2^7-one] and CC(C)n1cc(C(F)(F)F)nc1-c1ccc2c(c1)NCCCOc1ncnc(C3CC3)c1-c1ncc3ccc(n3n1)C2 [Example 33, (Z)-1^6-cyclopropyl-4^4-(1-isopropyl-4-(trifluoromethyl)-1H-imidazol-2-yl)-9-oxa-5-aza-2(2,7)-pyrrolo[2,1-f][1,2,4]triazina-1(5,4)-pyrimidina-4(1,2)-benzenacyclononaphane] cannot be ordered by IC50: ≤ 100 nM for the first, ≤ 100 nM for the second.

CC(C)n1cc(C(F)(F)F)nc1-c1ccc2c(c1)NCCCOc1cccc(C3CC3)c1-c1ncc3cnn(c3n1)C2 [Example 26, 1^6-cyclopropyl-4^4-(1-isopropyl-4-(trifluoromethyl)-1H-imidazol-2-yl)-2^1H-9-oxa-5-aza-2(6,1)-pyrazolo[3,4-d]pyrimidina-1,4(1,2)-dibenzenacyclononaphane] and CC(C)n1cc(C(F)(F)F)nc1-c1ccc2cc1OCCOc1ncnc(C3CC3)c1-c1ncc3cnn(c3n1)C2 [Example 29, 1^6-cyclopropyl-44-(1-isopropyl-4-(trifluoromethyl)-1H-imidazol-2-yl)-2^1H-5,8-dioxa-2(6,1)-pyrazolo[3,4-d]pyrimidina-1(5,4)-pyrimidina-4(1,3)-benzenacyclooctaphane] cannot be ordered by IC50: ≤ 100 nM for the first, ≤ 100 nM for the second.

In the case of CC(C)n1cc(C(F)(F)F)nc1-c1ccc2c(c1)OCCOc1ncnc(C3CC3)c1-c1ncc3ccc(n3n1)C2 [Example 31, (Z)-1^6-cyclopropyl-4^4-(1-isopropyl-4-(trifluoromethyl)-1H-imidazol-2-yl)-5,8-dioxa-2(2,7)-pyrrolo[2,1-f][1,2,4]triazina-1(5,4)-pyrimidina-4(1,2)-benzenacyclooctaphane], the IC50 is reported as ≤ 100 nM.
